Data published in US20260284010A1, “SOLID DISPERSION OF P2X4 INHIBITOR, AND PREPARATION METHOD THEREFOR AND USE THEREOF” (priority 2023, published 2026).
Values after ≈ are worked out from the molar mass of the structure shown. Where two headings read alike, the source gives them in different places.

Tests used:
[1] = Dynamic solubility test (two-step dissolution, SGF then FaSSIF) of solid dispersions; type: physicochemical; conditions: 37° C.
Description: 20 mg each of the solid dispersion products from formulations 1 to 9 in Example 4 was taken and added with 3 mL of SGF (target concentration of API: […]). The mixture was stirred at 37° C. and 500 rpm for 0.25 hours and 0.5 hours, respectively, followed by sampling. 3 mL of 2× FaSSIF was then added to adjust the solution pH to approximately 6.5. The mixture was stirred for another 0.25 hours, 0.5 hours, 1 hour, and 1.5 hours, respectively, followed by sampling. The collected samples were analyzed by UPLC, and the final solution pH was measured.

[2] = Solubilization test of compound 1 with surfactants in FaSSIF; type: physicochemical; conditions: for solubility at 0.5 h / solubility at 1 h / solubility at 2 h / solubility at 4 h: 37° C., read-out: Concentration of API in vehicle
Description: 50 mg of compound 1 was weighed into 5 mL of FaSSIF medium containing 5 mg of different surfactants (target concentration of API (compound 1):10 mg/mL). The mixture was shaken at 500 rpm and 37° C. 0.5 mL each of the suspension samples was taken at 0.5 hours, 1 hour, 2 hours, and 4 hours, respectively, centrifuged at 14,000 rpm for 5 minutes, and the supernatant was diluted and analyzed by HPLC.

[3] = FaSSIF (pH 6.5) with 5 mg Cremophor EL, 50 mg API in 5 mL
[4] = FaSSIF (pH 6.5) with 5 mg Cremophor RH40, 50 mg API in 5 mL
[5] = FaSSIF (pH 6.5) with 5 mg SLS, 50 mg API in 5 mL
[6] = FaSSIF (pH 6.5) with 5 mg Solutol HS15, 50 mg API in 5 mL
[7] = FaSSIF (pH 6.5) with 5 mg VE-TPGS, 50 mg API in 5 mL
[8] = FaSSIF (pH 6.5), no surfactant, 50 mg API in 5 mL
[9] = fassif with poloxamer 188, FaSSIF (pH 6.5) with 5 mg Poloxamer 188, 50 mg API in 5 mL
[10] = fassif with poloxamer 407, FaSSIF (pH 6.5) with 5 mg Poloxamer 407, 50 mg API in 5 mL
[11] = fassif with tween 80, FaSSIF (pH 6.5) with 5 mg Tween 80, 50 mg API in 5 mL

## NS(=O)(=O)c1cc(NC(=O)Cc2ccccc2Cl)cc2nn(C(F)F)cc12 [compound 1]
[1]; Step 1 (SGF, pH 1.6), 0.25 h, target API 2 mg/mL
  Solubility of API in vehicle: 33.7 µg/mL
[1]; Step 1 (SGF, pH 1.6), 0.5 h, target API 2 mg/mL
  Solubility of API in vehicle: 65.1 µg/mL
[1]; Step 2 (FaSSIF, pH 6.5), 0.75 h
  Solubility of API in vehicle: 13.7 µg/mL
[1]; Step 2 (FaSSIF, pH 6.5), 1.0 h
  Solubility of API in vehicle: 33.5 µg/mL
[1]; Step 2 (FaSSIF, pH 6.5), 2.0 h
  Solubility of API in vehicle: 18.0 µg/mL
[1]; Step 2 (FaSSIF, pH 6.5), […]
  Solubility of API in vehicle: 15.0 µg/mL
[2]; [3]
  solubility at 0.5 h: 1570 µg/mL (≈ 3800 µM)
  solubility at 1 h: 1600 µg/mL (≈ 3870 µM)
  solubility at 2 h: 1540 µg/mL (≈ 3710 µM)
  solubility at 4 h: 1510 µg/mL (≈ 3640 µM)
[2]; [4]
  solubility at 0.5 h: 1580 µg/mL (≈ 3820 µM)
  solubility at 1 h: 1600 µg/mL (≈ 3870 µM)
  solubility at 2 h: 1570 µg/mL (≈ 3780 µM)
  solubility at 4 h: 1540 µg/mL (≈ 3710 µM)
[2]; [5]
  solubility at 0.5 h: 614 µg/mL (≈ 1480 µM)
  solubility at 1 h: 622 µg/mL (≈ 1500 µM)
  solubility at 2 h: 639 µg/mL (≈ 1540 µM)
  solubility at 4 h: 652 µg/mL (≈ 1570 µM)
[2]; [6]
  solubility at 0.5 h: 1470 µg/mL (≈ 3530 µM)
  solubility at 1 h: 1500 µg/mL (≈ 3620 µM)
  solubility at 2 h: 1480 µg/mL (≈ 3570 µM)
  solubility at 4 h: 1460 µg/mL (≈ 3510 µM)
[2]; [7]
  solubility at 0.5 h: 2110 µg/mL (≈ 5100 µM)
  solubility at 1 h: 2120 µg/mL (≈ 5120 µM)
  solubility at 2 h: 2090 µg/mL (≈ 5040 µM)
  solubility at 4 h: 2080 µg/mL (≈ 5010 µM)
[2]; [8]
  solubility at 0.5 h: 33.9 µg/mL (≈ 81.7 µM)
  solubility at 1 h: 22.9 µg/mL (≈ 55.2 µM)
  solubility at 2 h: 15.2 µg/mL (≈ 36.6 µM)
  solubility at 4 h: 14.9 µg/mL (≈ 35.9 µM)
[2]; FaSSIF with SLS, Cremophor EL, Cremophor RH40, VE-TPGS, Tween 80, Poloxamer 407, or Solutol HS15, in words
  Solubility of compound 1 with surfactants: significantly improved
[2]; [9]
  solubility at 0.5 h: 116 µg/mL (≈ 279 µM)
  solubility at 1 h: 123 µg/mL (≈ 297 µM)
  solubility at 2 h: 104 µg/mL (≈ 251 µM)
  solubility at 4 h: 93.9 µg/mL (≈ 226 µM)
[2]; [10]
  solubility at 0.5 h: 838 µg/mL (≈ 2020 µM)
  solubility at 1 h: 861 µg/mL (≈ 2070 µM)
  solubility at 2 h: 842 µg/mL (≈ 2030 µM)
  solubility at 4 h: 797 µg/mL (≈ 1920 µM)
[2]; [11]
  solubility at 0.5 h: 899 µg/mL (≈ 2170 µM)
  solubility at 1 h: 893 µg/mL (≈ 2150 µM)
  solubility at 2 h: 888 µg/mL (≈ 2140 µM)
  solubility at 4 h: 887 µg/mL (≈ 2140 µM)
